# What was measured:
# Experiment in all cases: relative viability (nuclei count vs DMSO), 5 days (fraction); higher = more cells survive
# IPA-3 + OSI-027 = compound: C1=CC=C2C(=C1)C=CC(=C2SSC3=C(C=CC4=CC=CC=C43)O)O [IPA-3] + COc1cccc2cc(-c3nc([C@H]4CC[C@H](C(=O)O)CC4)n4ncnc(N)c34)[nH]c12 [OSI-027] (partner 0.5 µM)
# Method in brief: (§1)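 Lung cancer cell lines in 1536-well plates were dosed by pin tool the day after seeding, either with one drug alone or with a fixed anchor-drug dose plus five library-drug doses (not always all listed) in √10 steps. After 5 days, cells were fixed and their nuclei stained in one step (final 0.05% Triton X-100, 1% formaldehyde, 1 ug/ml Hoechst), then counted on 4× images. Relative viability is the nuclei count in treated wells divided by that in vehicle wells. Values are medians of duplicate plates.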
# IPA-3 + Crizotinib = compound: C1=CC=C2C(=C1)C=CC(=C2SSC3=C(C=CC4=CC=CC=C43)O)O [IPA-3] + C[C@@H](Oc1cc(-c2cnn(C3CCNCC3)c2)cnc1N)c1c(Cl)ccc(F)c1Cl [Crizotinib] (partner 1 µM)
# Method in brief: as §1
# IPA-3 + Decitabine = compound: C1=CC=C2C(=C1)C=CC(=C2SSC3=C(C=CC4=CC=CC=C43)O)O [IPA-3] + Nc1ncn([C@H]2C[C@H](O)[C@@H](CO)O2)c(=O)n1 [Decitabine] (partner 2 µM)
# Method in brief: as §1
# RAF265 + Palbociclib = compound: Cn1c(Nc2ccc(C(F)(F)F)cc2)nc2cc(Oc3ccnc(-c4ncc(C(F)(F)F)[nH]4)c3)ccc21 [RAF265] + CC(=O)c1c(C)c2cnc(Nc3ccc(N4CCNCC4)cn3)nc2n(C2CCCC2)c1=O [Palbociclib] (partner 0.5 µM)
# Method in brief: as §1
cell line,measurement,setting,value
UMC-11,relative viability,IPA-3 + OSI-027; first compound 0.2 µM,0.5
same,relative viability,IPA-3 + OSI-027; first compound 0.6325 µM,0.49
same,relative viability,IPA-3 + OSI-027; first compound 2 µM,0.426
same,relative viability,IPA-3 + OSI-027; first compound 6.325 µM,0.458
same,relative viability,IPA-3 + OSI-027; first compound 20 µM,0.502
same,relative viability,IPA-3 + Crizotinib; first compound 0.2 µM,0.605
same,relative viability,IPA-3 + Crizotinib; first compound 0.6325 µM,0.524
same,relative viability,IPA-3 + Crizotinib; first compound 2 µM,0.798
same,relative viability,IPA-3 + Crizotinib; first compound 6.325 µM,0.579
same,relative viability,IPA-3 + Crizotinib; first compound 20 µM,0.673
same,relative viability,IPA-3 + Decitabine; first compound 0.2 µM,0.682
same,relative viability,IPA-3 + Decitabine; first compound 0.6325 µM,0.759
same,relative viability,IPA-3 + Decitabine; first compound 2 µM,0.568
same,relative viability,IPA-3 + Decitabine; first compound 6.325 µM,0.362
same,relative viability,IPA-3 + Decitabine; first compound 20 µM,0.594
same,relative viability,RAF265 + Palbociclib; first compound 0.01 µM,0.309
same,relative viability,RAF265 + Palbociclib; first compound 0.03162 µM,0.336
same,relative viability,RAF265 + Palbociclib; first compound 0.1 µM,0.334
same,relative viability,RAF265 + Palbociclib; first compound 0.3162 µM,0.314
same,relative viability,RAF265 + Palbociclib; first compound 1 µM,0.32
